Drawing on the METLIN SMRT retention time set (Domingo-Almenara et al. 2019), this text covers RP-LC retention time for 59 compounds.

The nature of this data set: gradient 5% acetonitrile 3 min, to 50% in 2 min, to 85% in 15 min, held 3 min, 100 µL/min. The following applies: column: Zorbax Extend-C18 2.1 x 50 mm; eluents: water / acetonitrile, 0.1% formic acid. The gist of the method:
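Pure standards were analyzed in mixtures of ~100 molecules using HPLC coupled to a quadrupole time-of-flight mass spectrometer, in both positive and negative ionization mode. Separation used a Zorbax Extend-C18 column (2.1 × 50 mm, 1.8 μm) at 100 μL/min, with water and acetonitrile each containing 0.1% formic acid. Dead and dwell volumes were 40 μL and 900 μL, and data were collected over 3 months. Retention time was read from computationally picked adduct peaks, each inspected manually.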
`CCOC(=O)c1ccc(-n2ccc3nc(C)c(C(=O)OC)cc3c2=O)cc1`: the RP-LC retention time worked out at 874 s.

As to `COc1cc(-c2noc(-c3nn(-c4cccc(C)c4)ccc3=O)n2)cc(OC)c1OC`, the RP-LC retention time worked out at 888 s.

Compound `Cc1ccccc1-c1nnc(COc2ccc(NC(=O)c3ccsc3)cc2)o1` displayed an RP-LC retention time of 911 s.

On to `CCc1ccc(N2C=C(C(=O)N3CCOCC3)S(=O)(=O)c3ccc(F)cc32)cc1`, for which the RP-LC retention time turned out to be 873 s.

In turn, `CCc1nc2ccc(-c3noc(-c4ccc(C#N)cc4)n3)cc2n1CC` showed an RP-LC retention time of 716 s.

In turn, `Cc1ccc(CNS(=O)(=O)c2c(-c3nnc(C)o3)c(C)n(C)c2C)o1` yielded an RP-LC retention time of 780 s.

The compound `Cc1cccc(C)c1-n1ccn(Cc2nc(-c3cccc(F)c3)no2)c(=O)c1=O` came in with an RP-LC retention time of 901 s.

Regarding `COC(=O)c1cccc(C(=O)N2CCN(c3ccccc3F)CC2)n1`, the RP-LC retention time was 777 s.

Regarding `CNC(=O)c1cc(N(C)C)nc2c(Cl)cccc12`, the RP-LC retention time amounted to 666 s.

Regarding `O=C(NC1CCCCC1)c1ccc2c(c1)NC(=O)C1CCCCN21` (centres undefined), the RP-LC retention time was 807 s.

The compound `CCOc1ccc(CN(CCOC)Cc2cc(=O)n3cc(Cl)ccc3n2)cc1` displayed an RP-LC retention time of 677 s.

Turning to `CCn1c(N2CCCC(C(=O)NCC3CCN(Cc4cc(C)ccc4C)CC3)C2)cc(=O)n(C)c1=O` (centres undefined), the RP-LC retention time is 665 s.

As to `COc1cc(CN2CC(c3nc(-c4ccsc4)nn3C)C2)ccc1OC(C)C`, the RP-LC retention time came out at 684 s.

As to `COc1ccc(CN2CC3(CCN(S(=O)(=O)C(C)C)CC3)C2=O)cc1`, the RP-LC retention time came out at 787 s.

As for `CCN(CC)c1nc2cc(C(=O)OC)ccc2c(=O)n1Cc1ccc(C)cc1`, the RP-LC retention time is 1310 s.

`COCCC1(NS(C)(=O)=O)CCN(C(=O)NCC(C)C)CC1` had an RP-LC retention time of 646 s.

For `Cc1ccccc1NC(=O)N1CC(Cc2nncn2C(C)C)C1`, the RP-LC retention time came out at 616 s.

In the case of `O=S(=O)(c1ccc(Cl)s1)N1CCc2nc(-c3ccccc3)ncc2C1`, the RP-LC retention time was found to be 1170 s.

Regarding `COc1ccc(SCCCC(=O)NCc2ccccc2)cc1`, the RP-LC retention time was found to be 849 s.

Turning to `Cc1csc(-c2cc(S(=O)(=O)Nc3ccc(S(N)(=O)=O)cc3)c(C)s2)n1`, the RP-LC retention time came to 797 s.

Consider `COCCOC1CN(C2CCN(C(=O)Nc3ccccc3)CC2)C12CCCCC2` (centres undefined), for which the RP-LC retention time amounted to 641 s.

On to `COc1ccccc1OCCNC(=O)c1ccc2c(=O)n(-c3ccccc3)c(N3CCCC3)nc2c1`, for which the RP-LC retention time was 834 s.

Regarding `Cc1ccc(C2c3[nH]c4ccccc4c3CCN2C(=O)C2CC2)cc1` (centres undefined), the RP-LC retention time is 1110 s.

In the case of `Cc1nc2cccnc2n1C1CCN(C(=O)Nc2cccc(F)c2)CC1`, the RP-LC retention time stood at 947 s.

`CC(C)(C)C(=O)N1CCC(OC2CCN(Cc3ccccc3)CC2)CC1` returned an RP-LC retention time of 638 s.

`O[C@@H]1C[C@@H](c2nnc3n2CCN(Cc2ccccc2)C3)N(Cc2cccnc2)C1` displayed an RP-LC retention time of 563 s.

Turning to `Cc1ccc(-n2nc(C)c3c(C)c(CCC(=O)N4CCN(c5ccccn5)CC4)c(C)nc32)cc1`, the RP-LC retention time amounted to 756 s.

For the compound `CCOc1ccc(S(=O)(=O)NCc2ccc3c(c2)CCN3C(=O)c2ccccc2)cc1`, the RP-LC retention time is 953 s.

Compound `O=C(NCc1ccc(F)cc1)C1CCN(C(=O)c2ncn3c2COC(c2ccc(Cl)cc2)C3)CC1` (centres undefined) came in with an RP-LC retention time of 842 s.

`Cc1ccc(C(=O)Nc2cccn3nc(C(C)C)nc23)cc1C` came in with an RP-LC retention time of 1030 s.

The compound `COc1ccc(N2CCN(S(=O)(=O)c3cn(C)nc3C)CC2)cc1` displayed an RP-LC retention time of 719 s.

In turn, `COc1ccc(C2(C(=O)N3CCC(c4ncc(C)n4C(C)C)C3)CC2)cc1` (centres undefined) displayed an RP-LC retention time of 530 s.

Regarding `O=C(NCc1ccccc1)C1CCCN(c2nc3ccsc3c(=O)n2Cc2ccccc2)C1` (centres undefined), the RP-LC retention time came out at 902 s.

Compound `CC(C)(C)c1ccc(C(=O)Nc2ccc3c(c2)C(=O)NC3=O)cc1` had an RP-LC retention time of 853 s.

`COc1ccc(CN2CCN(C(=O)C3=Cc4ccccc4OC3)CC2)c(OC)c1OC` had an RP-LC retention time of 679 s.

Take `O=C(CN1C(=O)COc2ccc(Cl)cc21)NCC(=O)N1CCCc2ccccc21`: the RP-LC retention time amounted to 862 s.

The compound `CCOCN(C(=O)Cn1c(CC)nc2ccccc21)c1c(C)cccc1CC` displayed an RP-LC retention time of 780 s.

With `CCn1cc(-c2nc(C(=O)Nc3cc(C)ccc3F)cs2)c2cccnc21`, the RP-LC retention time was 1240 s.

Turning to `CCc1ccccc1NC(=O)N1CC(Cc2nncn2C(C)C)C1`, the RP-LC retention time worked out at 646 s.

`CCOc1ccc(Cl)cc1S(=O)(=O)N1CCC(C(=O)NCCCO)CC1` came in with an RP-LC retention time of 688 s.

Consider `O=c1c2ccccc2c(-c2nc(-c3cccnc3)no2)cn1-c1cccc(Cl)c1`, for which the RP-LC retention time came out at 1130 s.

Regarding `Cc1cc(NC(=O)NC2CCN(c3ccccc3)C2=O)ccc1Br` (centres undefined), the RP-LC retention time was 919 s.

`OC(CNCC(O)C1CCc2cc(F)ccc2O1)C1CCc2cc(F)ccc2O1` (centres undefined) showed an RP-LC retention time of 744 s.

Regarding `COCCNC(=O)C1c2ccccc2CC(=O)N1Cc1ccccc1` (centres undefined), the RP-LC retention time came to 711 s.

`CC(C)c1nc(-c2ccc(C(=O)NCc3noc(COc4ccccc4)n3)cc2)no1` had an RP-LC retention time of 998 s.

`COc1cccc(NC(=O)NCC(c2cccnc2)c2cn(C)c3ccccc23)c1` (centres undefined) yielded an RP-LC retention time of 684 s.

Turning to `CCOC(=O)c1c(C)n(C)c2ccc(OCC(O)CN3CCCCC3)cc12` (centres undefined), the RP-LC retention time came to 643 s.

In the case of `c1ccc(-c2ccc(-c3nccc4ccccc34)[nH]2)cc1`, the RP-LC retention time worked out at 806 s.

On to `CCOC(=O)c1sc(NC(=O)Cn2c(=O)oc3ccccc32)nc1C`, for which the RP-LC retention time came to 778 s.

The compound `CC(Oc1ccc(-c2cnc3ccccc3n2)cc1)C(=O)N1CCN(c2ccccn2)CC1` (centres undefined) yielded an RP-LC retention time of 650 s.

Turning to `Cc1cc(NC(=O)CSc2nc(-c3cccnc3)ccc2C#N)no1`, the RP-LC retention time was 626 s.

For the compound `O=C(NCCc1ccccc1)NCc1cccn1Cc1ccc(F)cc1`, the RP-LC retention time was found to be 965 s.

`COC(=O)c1cc(S(=O)(=O)N2CCCC2C(=O)NCc2ccccn2)cn1C` (centres undefined): the RP-LC retention time turned out to be 590 s.

`Cc1ccc(CNC(=O)N2CCN(c3ncccc3-c3nnc(C4CC4)o3)CC2)cc1` came in with an RP-LC retention time of 780 s.

In turn, `O=C(Cn1cccc1-c1nnc(-c2ccccc2)o1)N1CCN(C(=O)c2ccco2)CC1` came in with an RP-LC retention time of 774 s.

For `CSc1cccc(NC(=O)C2CCN(S(=O)(=O)c3cn(C(C)C)cn3)CC2)c1`, the RP-LC retention time was 812 s.

Regarding `CC1CCN(c2ccc(-c3noc(CN4CCN(CC(=O)NC(C)C)CC4)n3)cn2)CC1`, the RP-LC retention time is 646 s.

In turn, `COc1cccc(NC(=O)c2c(C)oc3nc(C)nc(N4CCCC4)c23)c1` yielded an RP-LC retention time of 743 s.

As to `CCOC(=O)c1c(S(=O)(=O)N2CCC(C(=O)Nc3ccc(CC)cc3)CC2)c(C)n(C)c1C`, the RP-LC retention time stood at 943 s.
